The values below come from patent US10874743B2, “IRAK degraders and uses thereof” (Kymera Therapeutics, Inc., priority 2017, dated 2020).

One test deals with T1, IRAK4 (Homo sapiens, UniProt Q9NWZ3).
T1 sequence (Q9NWZ3 1-460): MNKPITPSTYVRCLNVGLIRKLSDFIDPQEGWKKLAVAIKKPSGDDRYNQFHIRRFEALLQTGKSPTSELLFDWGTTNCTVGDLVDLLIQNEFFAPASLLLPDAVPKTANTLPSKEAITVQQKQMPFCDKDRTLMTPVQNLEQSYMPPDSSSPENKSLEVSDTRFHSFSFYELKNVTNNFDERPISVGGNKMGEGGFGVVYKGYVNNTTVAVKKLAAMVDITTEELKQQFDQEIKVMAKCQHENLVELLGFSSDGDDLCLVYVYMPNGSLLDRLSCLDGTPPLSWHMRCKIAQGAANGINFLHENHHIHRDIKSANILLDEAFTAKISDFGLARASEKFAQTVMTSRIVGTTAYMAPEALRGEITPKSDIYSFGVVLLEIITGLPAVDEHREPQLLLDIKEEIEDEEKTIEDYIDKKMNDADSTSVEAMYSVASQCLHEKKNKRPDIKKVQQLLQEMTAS
Description: PBMC degradation assay (western blot, % IRAK4 degraded after 4 hours). Format: cell-based. The settings on record: human PBMCs. A general note: In western blotting, separated proteins are transferred to a membrane and probed.

Test [1] addresses CRBN-DDB1 / GST-IRAK4 ternary complex (Homo sapiens, UniProt Q96SW2+Q9NWZ3). The experiment in a line: AlphaLISA assay to determine ternary complex formation. Format: binding. The procedure: The assay mixture contains 100 nM CRBN-DDB1, 100 nM GST-IRAK4, 20 μg/mL Nickle Chelate Donor Bead (Perkin Elmer Catalog # AS101D) and 20 μg/mL GSH Acceptor Bead (Perkin Elmer Catalog # AL109C) in a buffer containing 50 mM HEPES, pH 7.5, 100 mM NaCl, 0.1% BSA, 2 mM TCEP, 0.05% Tween-20. […] AlphaLISA signals (Excitation 680 nm and emission 615 nm) were recorded on a Perkin Elmer EnVision 2104 Multilabel reader. The raw data was converted to the relative amount of ternary complex formation by normalization to the signal generated by His-tagged GST protein only. The final data points were plotted and the curves were fit using non-linear regression using GraphPad Prism software.
(Bead proximity is the source of the signal in Alpha formats.)

Molecules are shown by their SMILES.

CRBN-DDB1 / GST-IRAK4 ternary complex, sequence (Q96SW2 whole entry, one chain of several): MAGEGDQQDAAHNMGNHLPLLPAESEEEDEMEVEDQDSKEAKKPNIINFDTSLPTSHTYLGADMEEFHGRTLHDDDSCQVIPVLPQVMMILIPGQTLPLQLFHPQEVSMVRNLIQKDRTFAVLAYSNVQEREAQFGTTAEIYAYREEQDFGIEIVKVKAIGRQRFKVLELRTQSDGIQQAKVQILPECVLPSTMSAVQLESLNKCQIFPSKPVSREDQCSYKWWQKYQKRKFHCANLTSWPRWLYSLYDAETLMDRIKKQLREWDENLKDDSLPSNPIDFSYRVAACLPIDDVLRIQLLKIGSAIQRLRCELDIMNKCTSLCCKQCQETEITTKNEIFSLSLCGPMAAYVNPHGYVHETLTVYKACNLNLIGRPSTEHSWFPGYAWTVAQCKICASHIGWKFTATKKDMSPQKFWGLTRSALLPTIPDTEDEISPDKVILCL
CRBN-DDB1 / GST-IRAK4 ternary complex, sequence (Q16531 whole entry partner, one chain of several): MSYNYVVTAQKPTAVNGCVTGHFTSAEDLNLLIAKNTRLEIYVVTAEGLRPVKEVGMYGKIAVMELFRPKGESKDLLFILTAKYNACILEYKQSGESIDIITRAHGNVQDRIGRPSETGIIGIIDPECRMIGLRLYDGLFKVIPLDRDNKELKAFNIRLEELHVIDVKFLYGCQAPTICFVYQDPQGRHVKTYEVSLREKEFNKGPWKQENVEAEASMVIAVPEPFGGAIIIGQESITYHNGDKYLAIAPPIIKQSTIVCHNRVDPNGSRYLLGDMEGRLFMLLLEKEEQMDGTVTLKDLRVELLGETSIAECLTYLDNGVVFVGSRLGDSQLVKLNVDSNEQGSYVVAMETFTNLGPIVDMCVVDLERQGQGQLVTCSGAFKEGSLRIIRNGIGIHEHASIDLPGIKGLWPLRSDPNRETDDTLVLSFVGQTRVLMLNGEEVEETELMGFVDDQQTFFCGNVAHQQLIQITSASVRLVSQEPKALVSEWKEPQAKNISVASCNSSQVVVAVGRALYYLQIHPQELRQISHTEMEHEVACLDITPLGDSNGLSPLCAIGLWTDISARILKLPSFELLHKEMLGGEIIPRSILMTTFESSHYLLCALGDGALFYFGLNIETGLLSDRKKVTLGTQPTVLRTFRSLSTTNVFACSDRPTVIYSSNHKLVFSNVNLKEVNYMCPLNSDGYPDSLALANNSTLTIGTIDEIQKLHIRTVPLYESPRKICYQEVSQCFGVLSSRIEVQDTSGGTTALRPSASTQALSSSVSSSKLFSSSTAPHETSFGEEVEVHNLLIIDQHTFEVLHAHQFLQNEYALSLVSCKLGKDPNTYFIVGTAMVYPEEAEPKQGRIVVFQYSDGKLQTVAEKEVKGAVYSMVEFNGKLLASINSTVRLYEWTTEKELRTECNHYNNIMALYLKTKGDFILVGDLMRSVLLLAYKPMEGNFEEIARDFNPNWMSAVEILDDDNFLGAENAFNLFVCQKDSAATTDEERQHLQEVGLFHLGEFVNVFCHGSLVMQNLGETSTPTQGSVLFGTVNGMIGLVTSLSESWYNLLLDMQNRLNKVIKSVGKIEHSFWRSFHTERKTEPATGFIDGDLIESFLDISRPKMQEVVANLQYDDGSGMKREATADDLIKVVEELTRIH

With `NC(=O)c1nn(-c2ccc(C(=O)NCCOCCOCCNc3cccc4c3C(=O)N(C3CCC(=O)NC3=O)C4=O)cc2)cc1NC(=O)c1coc(-c2ccnc(NCC(F)(F)F)c2)n1` (centres unmarked) [I-127, N-[3-carbamoyl-1-[4-[2-[2-[2-[[2-(2,6-dioxo-3-piperidyl)-1,3-dioxo-isoindolin-4-yl]amino]ethoxy]ethoxy]ethylcarbamoyl]phenyl]pyrazol-4-yl]-2-[2-(2,2,2-trifluoroethylamino)-4-pyridyl]oxazole-4-carboxamide], the “PBMC % IRAK4 Degradation” value at IRAK4 was “A (>50% degradation)”. The “Average % Ternary Complex (N = 2)” value was determined as 31.29% in test [1] (compound concentration 1.00E−07 M); 5.89% in test [1] (compound concentration 1.25E−08 M); 1.58% in test [1] (compound concentration 1.28E−05 M); 12.53% in test [1] (compound concentration 1.60E−06 M); 28.96% in test [1] (compound concentration 2.00E−07 M); 12.66% in test [1] (compound concentration 2.50E−08 M). Also, the “Average % Ternary Complex (N = 2)” value in test [1] (compound concentration 3.20E−06 M) is given as 6.74%; in test [1] (compound concentration 4.00E−07 M), 25.83%; in test [1] (compound concentration 5.00E−08 M), 23.14%; in test [1] (compound concentration 6.25E−09 M), 2.71%; in test [1] (compound concentration 6.40E−06 M), 3.36%; in test [1] (compound concentration 8.00E−07 M), 17.79%.

As to `NC(=O)c1nn(-c2ccc(C(=O)NCCCCCNCCNc3cccc4c3C(=O)N(C3CCC(=O)NC3=O)C4=O)cc2)cc1NC(=O)c1coc(-c2ccnc(NCC(F)(F)F)c2)n1` (centres unmarked) [I-172, N-[3-carbamoyl-1-[4-[5-[2-[[2-(2,6-dioxo-3-piperidyl)-1,3-dioxo-isoindolin-4-yl]amino]ethylamino]pentylcarbamoyl]phenyl]pyrazol-4-yl]-2-[2-(2,2,2-trifluoroethylamino)-4-pyridyl]oxazole-4-carboxamide], the “PBMC % IRAK4 Degradation” value on IRAK4 was “A (>50% degradation)”.
